ChEMBL document CHEMBL1124836 (J Med Chem, 1990)
pKi: −log10 of the molar value.

Target: T1, Adenosine receptor A1 (Rattus norvegicus, UniProt P25099)
T1 sequence (P25099 whole entry): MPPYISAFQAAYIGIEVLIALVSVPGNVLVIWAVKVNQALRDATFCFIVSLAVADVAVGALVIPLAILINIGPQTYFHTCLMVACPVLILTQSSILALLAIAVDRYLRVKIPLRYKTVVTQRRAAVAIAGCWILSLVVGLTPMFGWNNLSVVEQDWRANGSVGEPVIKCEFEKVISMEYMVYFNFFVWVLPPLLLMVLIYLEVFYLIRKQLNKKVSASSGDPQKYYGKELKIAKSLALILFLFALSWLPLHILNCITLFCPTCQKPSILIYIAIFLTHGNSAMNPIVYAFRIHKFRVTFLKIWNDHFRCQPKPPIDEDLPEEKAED
Assay: Adenosine A1 receptor binding was measured in adenosine deaminase (ADA) pretreated rat cortical membranes using [3H]cyclohexyladenosine in the presence of 2-chloroadenosine

| Compound | pKi |
| --- | --- |
| CNC(=O)[C@H]1O[C@@H](n2cnc3c(N)ncnc32)[C@H](O)[C@@H]1O | 7.00 |
| CCNC(=O)[C@H]1OC(n2cnc3c(N)nc(NCCc4ccc(Cl)cc4)nc32)[C@H](O)[C@@H]1O (stereo partly specified) | 5.82 |
| CC(=O)O[C@]1(C(C)=O)CC[C@H]2[C@@H]3C=C(Cl)C4=CC(=O)[C@@H]5C[C@@H]5[C@]4(C)[C@H]3CC[C@@]21C [CYPROTERONE ACETATE] | 8.89 |
| CCNC(=O)[C@H]1O[C@@H](n2cnc3c(N)nc(NCCc4ccc(CCC(=O)OC)cc4)nc32)[C@H](O)[C@@H]1O | 5.90 |
| CCNC(=O)[C@H]1O[C@@H](n2cnc3c(N)nc(NCc4ccccc4)nc32)[C@H](O)[C@@H]1O | 5.07 |
| CCNC(=O)[C@H]1O[C@@H](n2cnc3c(N)nc(NCCc4ccc(OCC(=O)O)cc4)nc32)[C@H](O)[C@@H]1O | 5.37 |
| CNC(=O)[C@H]1O[C@@H](n2cnc3c(N)nc(NCCc4ccccc4)nc32)[C@H](O)[C@@H]1O | 5.27 |
| CCNC(=O)[C@H]1O[C@@H](n2cnc3c(N)nc(NCCc4ccccc4)nc32)[C@H](O)[C@@H]1O | 6.33 |
| CCNC(=O)[C@H]1O[C@@H](n2cnc3c(N)nc(NCCc4ccc(CC(=O)O)cc4)nc32)[C@H](O)[C@@H]1O | 5.31 |
| Nc1nc(NCCc2ccccc2)nc2c1ncn2[C@@H]1O[C@H](C(=O)NC2CC2)[C@@H](O)[C@H]1O | 6.30 |
| CCNC(=O)[C@H]1O[C@@H](n2cnc3c(N)nc(N(C)CCc4ccccc4)nc32)[C@H](O)[C@@H]1O | 4.92 |
| CCNC(=O)[C@H]1O[C@@H](n2cnc3c(N)nc(NCCc4ccc(F)cc4)nc32)[C@H](O)[C@@H]1O | 5.93 |

Species on record: Rattus norvegicus
Assay: Effective concentration required for 25% increase in coronary flow(CF) in perfused working heart model was determined
Type: functional

| Compound | EC25 [µM] |
| --- | --- |
| CCNC(=O)[C@H]1O[C@@H](n2cnc3c(N)ncnc32)[C@H](O)[C@@H]1O [NECA] | 0.005 |
| CCNC(=O)[C@H]1O[C@@H](n2cnc3c(N)nc(NCCc4ccc(CCC(=O)O)cc4)nc32)[C@H](O)[C@@H]1O [CGS-21680] | 0.002 |
| CCNC(=O)[C@H]1O[C@@H](n2cnc3c(N)nc(NCCc4ccccc4)nc32)[C@H](O)[C@@H]1O | 0.003 |
| Nc1nc(Nc2ccccc2)nc2c1ncn2[C@@H]1O[C@H](CO)[C@@H](O)[C@H]1O | 0.11 |

Test system: not listed separately
Assay: Ratio of A1-receptor binding to that of A2-receptor binding

| Compound | Ratio |
| --- | --- |
| CCNC(=O)[C@H]1OC(n2cnc3c(N)nc(NCCc4ccc(Cl)cc4)nc32)[C@H](O)[C@@H]1O (stereo partly specified) | 201 |
| CC(=O)O[C@]1(C(C)=O)CC[C@H]2[C@@H]3C=C(Cl)C4=CC(=O)[C@@H]5C[C@@H]5[C@]4(C)[C@H]3CC[C@@]21C [CYPROTERONE ACETATE] | 0.002 |
| CCNC(=O)[C@H]1O[C@@H](n2cnc3c(N)nc(NCCc4ccc(CCC(=O)OC)cc4)nc32)[C@H](O)[C@@H]1O | 140 |
| CCNC(=O)[C@H]1O[C@@H](n2cnc3c(N)nc(NCc4ccccc4)nc32)[C@H](O)[C@@H]1O | 7.6 |
| CCNC(=O)[C@H]1O[C@@H](n2cnc3c(N)nc(NCCc4ccc(OCC(=O)O)cc4)nc32)[C@H](O)[C@@H]1O | 101 |
| CNC(=O)[C@H]1O[C@@H](n2cnc3c(N)nc(NCCc4ccccc4)nc32)[C@H](O)[C@@H]1O | 69 |
| CCNC(=O)[C@H]1O[C@@H](n2cnc3c(N)nc(NCCc4ccc(CC(=O)O)cc4)nc32)[C@H](O)[C@@H]1O | 109 |
| Nc1nc(NCCc2ccccc2)nc2c1ncn2[C@@H]1O[C@H](C(=O)NC2CC2)[C@@H](O)[C@H]1O | 36 |
| CCNC(=O)[C@H]1O[C@@H](n2cnc3c(N)nc(N(C)CCc4ccccc4)nc32)[C@H](O)[C@@H]1O | 170 |
| CCNC(=O)[C@H]1O[C@@H](n2cnc3c(N)nc(NCCc4ccc(F)cc4)nc32)[C@H](O)[C@@H]1O | 154 |

Target: Adenosine A2 receptor (Rattus norvegicus, UniProt P29276+P30543)
Assay: not given

| Compound | Ki [µM] |
| --- | --- |
| CCNC(=O)[C@H]1OC(n2cnc3c(N)nc(NCCc4ccc(Cl)cc4)nc32)[C@H](O)[C@@H]1O (stereo partly specified) | 0.0075 |
| CC(=O)O[C@]1(C(C)=O)CC[C@H]2[C@@H]3C=C(Cl)C4=CC(=O)[C@@H]5C[C@@H]5[C@]4(C)[C@H]3CC[C@@]21C [CYPROTERONE ACETATE] | 0.636 |
| CCNC(=O)[C@H]1O[C@@H](n2cnc3c(N)nc(NCCc4ccc(CCC(=O)OC)cc4)nc32)[C@H](O)[C@@H]1O | 0.009 |
| CCNC(=O)[C@H]1O[C@@H](n2cnc3c(N)nc(NCc4ccccc4)nc32)[C@H](O)[C@@H]1O | 1.13 |
| CCNC(=O)[C@H]1O[C@@H](n2cnc3c(N)nc(NCCc4ccc(OCC(=O)O)cc4)nc32)[C@H](O)[C@@H]1O | 0.042 |
| CNC(=O)[C@H]1O[C@@H](n2cnc3c(N)nc(NCCc4ccccc4)nc32)[C@H](O)[C@@H]1O | 0.077 |
| CCNC(=O)[C@H]1O[C@@H](n2cnc3c(N)nc(NCCc4ccc(CC(=O)O)cc4)nc32)[C@H](O)[C@@H]1O | 0.045 |
| Nc1nc(Nc2ccccc2)nc2c1ncn2[C@@H]1O[C@H](CO)[C@@H](O)[C@H]1O | 0.071 |
| Nc1nc(NCCc2ccccc2)nc2c1ncn2[C@@H]1O[C@H](C(=O)NC2CC2)[C@@H](O)[C@H]1O | 0.014 |
| CCNC(=O)[C@H]1O[C@@H](n2cnc3c(N)nc(N(C)CCc4ccccc4)nc32)[C@H](O)[C@@H]1O | 0.071 |
| CCNC(=O)[C@H]1O[C@@H](n2cnc3c(N)nc(NCCc4ccc(F)cc4)nc32)[C@H](O)[C@@H]1O | 0.0077 |

Species on record: Rattus norvegicus
Assay: Effective concentration required for 25% decrease in heart rate in perfused working heart model was determined

| Compound | EC25 [µM] |
| --- | --- |
| CCNC(=O)[C@H]1O[C@@H](n2cnc3c(N)ncnc32)[C@H](O)[C@@H]1O [NECA] | 0.06 |
| CCNC(=O)[C@H]1O[C@@H](n2cnc3c(N)nc(NCCc4ccc(CCC(=O)O)cc4)nc32)[C@H](O)[C@@H]1O [CGS-21680] | > 3 |
| CCNC(=O)[C@H]1O[C@@H](n2cnc3c(N)nc(NCCc4ccccc4)nc32)[C@H](O)[C@@H]1O | > 3 |
| Nc1nc(Nc2ccccc2)nc2c1ncn2[C@@H]1O[C@H](CO)[C@@H](O)[C@H]1O | > 3 |
